Data as given in ChEMBL document CHEMBL1159003, “Chemical investigation and anti-inflammatory activity of Vitex negundo seeds” (1992).

Each compound was assayed on Rattus norvegicus (assay: Antiinflammatory activity in Sprague-Dawley rat assessed as inhibition of carrageenan-induced paw edema at 50 mg/kg, po after 3.5 hrs).
Type: functional
`CC(C)Cc1ccc(C(C)C(=O)O)cc1` (stereo not drawn) [IBUPROFEN] was tested, and the inhibition in vivo at 50 mg/kg was 63.2%.
`CC1(C)CC[C@]2(C(=O)O)CC[C@]3(C)C(=CC[C@@H]4[C@@]5(C)C[C@@H](O)[C@@H](O)C(C)(C)C5=CC[C@]43C)[C@@H]2C1` showed an inhibition in vivo at 50 mg/kg of 18.7%.
`CC1(C)CC[C@]2(C(=O)O)CC[C@]3(C)C(=CC[C@@H]4[C@@]5(C)C[C@H](O)[C@@H](O)C(C)(C)C5=CC[C@]43C)[C@@H]2C1` showed an inhibition in vivo at 50 mg/kg of 34.3%.
